Laboratory results from article PMC11335189, “Revealing molecular determinants governing mambalgin-3 pharmacology at acid-sensing ion channel 1 variants” (Cellular and Molecular Life Sciences: CMLS, 2024).
Positions of bridges follow the written chain, without caps; N, C: chain ends. No end group written: not given here.

How the values were obtained:
[1] = molecular target: T1, hASIC1a (Homo sapiens, UniProt P78348); experiment: TEVC in Xenopus laevis oocytes expressing hASIC1a; format: cell-based; conditions: for loss of potency relative to wild-type Ma-3: conditioning pH 7.45, stimulating pH 6
T1 construct: expressed in transfected cells; host or cells: Xenopus laevis oocytes (cRNA injection)
T1 sequence (P78348 1-528): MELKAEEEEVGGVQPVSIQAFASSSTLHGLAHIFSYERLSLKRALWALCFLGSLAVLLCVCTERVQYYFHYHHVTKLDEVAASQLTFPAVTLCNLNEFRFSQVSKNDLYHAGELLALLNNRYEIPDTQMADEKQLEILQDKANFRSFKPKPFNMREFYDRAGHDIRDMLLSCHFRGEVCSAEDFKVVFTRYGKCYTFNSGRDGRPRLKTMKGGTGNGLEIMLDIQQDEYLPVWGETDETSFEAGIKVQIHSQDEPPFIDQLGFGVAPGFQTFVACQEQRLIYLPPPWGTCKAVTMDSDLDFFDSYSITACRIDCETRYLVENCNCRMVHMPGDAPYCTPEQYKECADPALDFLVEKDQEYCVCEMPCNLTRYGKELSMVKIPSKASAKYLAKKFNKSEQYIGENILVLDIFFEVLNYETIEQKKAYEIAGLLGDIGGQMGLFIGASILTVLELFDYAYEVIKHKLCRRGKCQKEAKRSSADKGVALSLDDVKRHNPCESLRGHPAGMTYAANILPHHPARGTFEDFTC
Protocol: Two-electrode voltage-clamp (TEVC) experiments using Xenopus laevis oocytes were conducted as previously described. Briefly, oocytes were surgically removed from anaesthetised female frogs, then treated with collagenase (~ 1 mg/ml, Sigma type I) for 2 h under agitation at room temperature. cRNAs were synthesised using a mMessage mMachine T7 or SP6 transcription kit (Thermo Fisher Scientific Australia Pty Ltd, Scoresby, VIC, Australia) and injected into healthy stage V–VI oocytes at 0.2–20 ng per cell. Different amounts of RNA were used for different wild-type and mutant constructs, as well as to titrate expression levels to record over multiple days and maintaining consistent expression levels. Injected oocytes were incubated at 17 °C for 1–7 days in 50% Leibovitz’s L-15 medium (Gibco, Thermo Fisher Scientific Australia Pty Ltd, Scoresby, VIC, Australia), supplemented with 25 µg/mL gentamicin, 25 µg/mL streptomycin, and 2.5% fetal horse serum. Membrane currents were recorded 2–7 days after cRNA-injection under voltage-clamp at -60 mV (Axon Axoclamp 900 A, Molecular Devices, CA, USA) using two standard glass microelectrodes of 0.5–1 MΩ resistance when filled with 3 M KCl solution. Data were sampled at 2 kHz and filtered at 0.1 kHz using Clampex 10 software (Molecular Devices, CA, USA). […]
(§1) Specific to this work, the standard protocol was for oocytes to be conditioned at pH 7.45 and channels stimulated every 60 s using a 5 s pH 5 or 6 application, unless stated otherwise. […] Activation curves were determined by conditioning oocytes at pH 8 (Fig. 2e − g; and Fig. 5a and b) or 7.45 (Fig. 6; and Supplementary Fig. 2d and c) for 55 s and applying low pH stimuli from 7.25 to 5.0 for 5 s. Steady-state desensitisation (SSD) was determined by applying conditioning solutions of pH values from 8 to 6 for 115 s prior to stimulation by a pH drop to 5 for 5 s. […] Control pH-dependence curves were determined in the absence of any Ma-3. […]
Data were analysed using pCLAMP-Clampfit software (Version 11, Molecular Devices, CA, USA) and GraphPad Prism 9.5 and 10.2.2 (GraphPad Software, San Diego, CA, USA). […]

[2] = molecular target: T2, rASIC1a E362R (Rattus norvegicus, UniProt P55926, E362R); experiment: TEVC oocytes, rASIC1a E362R mutant; format: cell-based; conditions: conditioning pH 7.45, stimulating pH 6
T2 construct: expressed in transfected cells; host or cells: Xenopus laevis oocytes (cRNA injection)
T2 sequence (P55926 1-526 E362R): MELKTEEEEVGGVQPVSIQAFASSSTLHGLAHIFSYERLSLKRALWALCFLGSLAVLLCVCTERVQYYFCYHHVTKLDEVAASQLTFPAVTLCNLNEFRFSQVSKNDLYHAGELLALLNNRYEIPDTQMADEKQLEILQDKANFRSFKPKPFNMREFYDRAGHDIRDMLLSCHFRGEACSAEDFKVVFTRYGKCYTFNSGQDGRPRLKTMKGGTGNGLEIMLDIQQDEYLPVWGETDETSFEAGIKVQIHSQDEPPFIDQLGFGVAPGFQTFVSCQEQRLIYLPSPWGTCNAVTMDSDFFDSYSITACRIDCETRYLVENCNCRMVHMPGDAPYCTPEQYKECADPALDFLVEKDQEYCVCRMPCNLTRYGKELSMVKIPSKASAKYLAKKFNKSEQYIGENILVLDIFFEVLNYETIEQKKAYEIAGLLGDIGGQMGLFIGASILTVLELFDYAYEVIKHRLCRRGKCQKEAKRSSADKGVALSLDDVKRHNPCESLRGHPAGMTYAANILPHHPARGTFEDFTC
Protocol: (§2) Two-electrode voltage-clamp (TEVC) experiments using Xenopus laevis oocytes were conducted as previously described. Briefly, oocytes were surgically removed from anaesthetised female frogs, then treated with collagenase (~ 1 mg/ml, Sigma type I) for 2 h under agitation at room temperature. cRNAs were synthesised using a mMessage mMachine T7 or SP6 transcription kit (Thermo Fisher Scientific Australia Pty Ltd, Scoresby, VIC, Australia) and injected into healthy stage V–VI oocytes at 0.2–20 ng per cell. […] Membrane currents were recorded 2–7 days after cRNA-injection under voltage-clamp at -60 mV (Axon Axoclamp 900 A, Molecular Devices, CA, USA) using two standard glass microelectrodes of 0.5–1 MΩ resistance when filled with 3 M KCl solution. […]
as §1

[3] = test system: rASIC1a: rASIC1b chimera C166; experiment: TEVC oocytes, rASIC1a: rASIC1b chimera C166; format: cell-based, rat; conditions: conditioning pH 7.45, stimulating pH 5
Protocol: as §2, §1

H-SLKCYQHGAVVTCHRDMKFCYHNIGMPFRNLKLILQGCSSSCSETENNKCCSTDRCNK (disulfide 4-20, 13-38, 42-50, 51-56 (inferred)) [K8A]
loss of potency relative to wild-type Ma-3 [1]: ~ 4 fold

H-SLKCYQHGKVVTCHRDAKFCYHNIGMPFRNLKLILQGCSSSCSETENNKCCSTDRCNK (disulfide 4-20, 13-38, 42-50, 51-56 (inferred)) [M16A]
loss of potency relative to wild-type Ma-3 [1]: no change

H-SLKCYQHGKVVTCHRDMKFCYHNIGMPFRNLKLILQGCSSSCSETENNKCCSTDRCNK (disulfide 4-20, 13-38, 42-50, 51-56 (inferred)) [Ma-3, mambalgin-3]
decrease in Ma-3 activity relative to wild-type rASIC1a [2]: ~ 5 fold | activity of 300 nM Ma-3 [3]: inhibited a greater proportion of current | pH50 of activation in presence of Ma-3 ([1]; 100 nM Ma-3 in the pH 8 conditioning solution, Hill fit, n = 5–6): 5.86
